Series [1] has as its system Streptococcus mutans. The series can be described thus: Viable cell count after xanthorrizol treatment. In kind it is cell-based. As to conditions: xanthorrizol 0.0004%(4 μg/ml); 37° C. As to the method: Xanthorrizol was also tested for Streptococcus mutans in a similar manner as described above: xanthorrizol was dissolved in DMSO to give specimens with a concentration of 0.0002%, 0.0004% and 0.0008%, respectively. Then, the specimens were incubated with the microorganism at 37° C. for 1, 2, 5 and 10 minutes, respectively, and subjected to serial 10-fold dilution. After the incubation with the pathogen, viable cell number for Streptococcus mutans was counted. FIG. 3 is a graph showing antibacterial activity of xanthorrizol against Streptococcus mutans in terms of viable cell number, where ♦ represents DMSO, control; ▪, 0.0002% crude extract; Δ, 0.0004% crude extract; x, 0.0008% crude extract, respectively.

The test system of series [2] is Actinomyces viscosus ATCC 15988. Nature of the series: MIC by 2-fold dilution. It is filed as cell-based. As to conditions: ATCC15988, 2×10^5 CFU/ml, 30 to 37° C., more than 24 hours. As to the method:
(§1) In addition, minimum inhibitory concentration(MIC, μg/ml) for various microorganisms was determined by performing 2-fold dilution: first, 1 ml of medium was taken into each tube, and 1 ml of xanthorrizol(0.05% in DMSO) was added to only one tube to make 2-fold dilution. Then, serial 2-fold dilution was further carried out for the rest of the tubes, starting from the tube containing xanthorrizol. 100 μl of microorganism was added into each tube prepared by the 2-fold dilution to contain a final cell number of 2×10^5 CFU/ml, and incubated at 30 to 37° C. for more than 24 hours to determine minimum inhibitory concentrations for various test microorganisms(see: Table 12).

For series [3], the system named is Penicilium chrysogenum IFO 5472. The series can be described thus: MIC by 2-fold dilution. In kind it is cell-based. The note with it: 2×10^5 CFU/ml; 30 to 37° C., more than 24 hours. As to the method: as §1
The test system of series [4] is Porphyromonas gingivalis W 50. Nature of the series: MIC by 2-fold dilution. It is filed as cell-based. The note with it: W50, 2×10^5 CFU/ml, 30 to 37° C., more than 24 hours. As to the method: as §1
Series [5] deals with Candida glabrata IFO 0622. The series can be described thus: MIC by 2-fold dilution. In kind it is cell-based. The note with it: Nakaseomyces glabratus, IFO0622; 2×10^5 CFU/ml; 30 to 37° C., more than 24 hours. As to the method:
as §1

Series [6] has as its system Streptomyces bikiniensis ATCC 11062. The series can be described thus: MIC by 2-fold dilution. It is filed as cell-based. The note with it: ATCC11062, 2×10^5 CFU/ml, 30 to 37° C., more than 24 hours. As to the method:
as §1

The subject of series [7] is Streptococcus sanguis ATCC 35105. Nature of the series: MIC by 2-fold dilution. In kind it is cell-based. As to conditions: ATCC35105, 2×10^5 CFU/ml, 30 to 37° C., more than 24 hours. As to the method: as §1
Series [8] concerns Cladosporium cladosporioides IFO 6348. Nature of the series: MIC by 2-fold dilution. The note with it: IFO6348, 2×10^5 CFU/ml, 30 to 37° C., more than 24 hours. In kind it is cell-based. As to the method: as §1
In series [9] the test system is Enterococcus faecalis ATCC 19433. Nature of the series: MIC by 2-fold dilution. In kind it is cell-based. The note with it: ATCC19433, 2×10^5 CFU/ml, 30 to 37° C., more than 24 hours. As to the method:
as §1

Series [10] deals with Streptococcus mutans ATCC 25175. The series can be described thus: MIC by 2-fold dilution. As to conditions: ATCC25175, 2×10^5 CFU/ml, 30 to 37° C., more than 24 hours. It is filed as cell-based. As to the method: as §1
The test system of series [11] is Lactobacillus casei ATCC 4646. Nature of the series: MIC by 2-fold dilution. It is filed as cell-based. As to conditions: Lacticaseibacillus casei, ATCC4646; 2×10^5 CFU/ml; 30 to 37° C., more than 24 hours. As to the method:
as §1

In series [12] the test system is Saccharomyces cerevisiae ATCC 9763. The series can be described thus: MIC by 2-fold dilution. In kind it is cell-based. The note with it: ATCC9763, 2×10^5 CFU/ml, 30 to 37° C., more than 24 hours. As to the method: as §1
Series [13] deals with Salmonella typhimurium IFO 12529. Nature of the series: MIC by 2-fold dilution. As to conditions: Salmonella enterica; 2×10^5 CFU/ml; 30 to 37° C., more than 24 hours. In kind it is cell-based. As to the method:
as §1

The subject of series [14] is Penicilium citrinum IFO 6352. Nature of the series: MIC by 2-fold dilution. It is filed as cell-based. The note with it: 2×10^5 CFU/ml; 30 to 37° C., more than 24 hours. As to the method:
as §1

Series [15] concerns Staphylococcus aureus ATCC 12600. Nature of the series: MIC by 2-fold dilution. The note with it: ATCC12600, 2×10^5 CFU/ml, 30 to 37° C., more than 24 hours. In kind it is cell-based. As to the method:
as §1

Series [16] deals with Lactobacillus aciophilus ATCC 4356. Nature of the series: MIC by 2-fold dilution. In kind it is cell-based. The note with it: ATCC4356, 2×10^5 CFU/ml, 30 to 37° C., more than 24 hours. As to the method:
as §1

Series [17] has as its system Streptococcus sobrinus ATCC 27351. The series can be described thus: MIC by 2-fold dilution. It is filed as cell-based. As to conditions: ATCC27351, 2×10^5 CFU/ml, 30 to 37° C., more than 24 hours. As to the method: as §1
Series [18] concerns Bifidobacterium bifidum ATCC 29521. Nature of the series: MIC by 2-fold dilution. As to conditions: ATCC29521, 2×10^5 CFU/ml, 30 to 37° C., more than 24 hours. It is filed as cell-based. As to the method: as §1
Series [19] concerns Propionibacterium acnes ATCC 6919. Nature of the series: MIC by 2-fold dilution. In kind it is cell-based. The note with it: Cutibacterium acnes, ATCC6919; 2×10^5 CFU/ml; 30 to 37° C., more than 24 hours. As to the method: as §1
Series [20] has as its system Streptococcus salivarius ATCC 9758. The series can be described thus: MIC by 2-fold dilution. In kind it is cell-based. The note with it: ATCC9758, 2×10^5 CFU/ml, 30 to 37° C., more than 24 hours. As to the method:
as §1

Series [21] deals with Candida albicans ATCC 10231. The series can be described thus: MIC by 2-fold dilution. It is filed as cell-based. As to conditions: ATCC10231, 2×10^5 CFU/ml, 30 to 37° C., more than 24 hours. As to the method:
as §1

For series [22], the system named is Pityrosporum pacchydermatis ATCC 14522. Nature of the series: MIC by 2-fold dilution. It is filed as cell-based. As to conditions: 2×10^5 CFU/ml; 30 to 37° C., more than 24 hours. As to the method:
as §1

Series [23] relates to human skin. The series can be described thus: Skin safety patch test. In kind it is in vivo.
For series [24], the system named is Streptococcus mutans. Nature of the series: Efflux of intracellular macromolecules and ions after xanthorrizol treatment. The note with it: 5 and 10 μg/ml xanthorrizol; FIGS. 4a, 4b, 5a, 5b. In kind it is cell-based. As to the method:
Streptococcus mutans was treated with 5 and 10 μg/ml of xanthorrizol for 1, 2, 5 and 10 minutes, respectively, to examine the efflux of intracellular macromolecules and ions by the xanthorrizol-mediated cell damage. FIGS. 4a and 4b are graphs showing the efflux of neucleic acid and protein from Streptococcus mutans after xanthorrizol treatment, and FIGS. 5a and 5b, calcium efflux and magnesium efflux, where ♦ represents 0.1% DMSO, control; ▪, Streptococcus mutans treated with 5 μg/ml xanthorrizol; •, Streptococcus mutans treated with 10 μg/ml xanthorrizol, respectively.

≈ marks a conversion by molar mass, not a printed value.

For orientation: MIC means the least concentration at which growth counts as inhibited. A low value points to a more susceptible organism. As to `CC(C)=CCC[C@@H](C)c1ccc(C)c(O)c1` [xanthorrizol, 1,3,5,10-bisabolatetraen-3-ol], in series [1], the “Eradication of the microorganism (viable cell number, FIG. 3)” value is on record as “eradicated almost completely in one minute”. Further, the MIC in series [2] is 16 µg/mL (≈ 73.3 µM); in [3] it was 125 µg/mL (≈ 573 µM); in series [4] it was 32 µg/mL (≈ 147 µM); in series [5], 125 µg/mL (≈ 573 µM); in [6] it was 32 µg/mL (≈ 147 µM); in series [7], 4 µg/mL (≈ 18.3 µM). Besides, the MIC amounted to 500 µg/mL (≈ 2290 µM) in series [8]; 16 µg/mL (≈ 73.3 µM) in [9]; 2 µg/mL (≈ 9.16 µM) in series [10]; 250 µg/mL (≈ 1150 µM) in series [11]; 250 µg/mL (≈ 1150 µM) in series [12]; 62.5 µg/mL (≈ 286 µM) in series [13]. The MIC in series [14] was found to be 250 µg/mL (≈ 1150 µM); in series [15], 62.5 µg/mL (≈ 286 µM); in [16] it was 500 µg/mL (≈ 2290 µM); in series [17], 4 µg/mL (≈ 18.3 µM); in series [18] it was 250 µg/mL (≈ 1150 µM); in [19] it was 16 µg/mL (≈ 73.3 µM). Moreover, the figures for the MIC in series [20], in series [21] and in series [22] were 4 µg/mL (≈ 18.3 µM), 125 µg/mL (≈ 573 µM) and 125 µg/mL (≈ 573 µM), respectively. The “adverse effects such as erythema, scarring or edema on skin” value in series [23] is given as “do not cause adverse effects”. In addition, the “efflux of protein, neucleic acid and ion” value in series [24] is “increased dramatically in 5 minutes”.

Values taken from patent US6696404B1, “Antibacterial composition having xanthorrizol” (LG Household & Healthcare, priority 1999, dated 2004).
